# From US12398111B2, “Triazine compounds and pharmaceutical use thereof” (Japan Tobacco Inc., priority 2014, dated 2025)
# Key:
# [1] = tested on: prostaglandins in guinea pig secondary aqueous humor; assay: Effect on prostaglandin composition in guinea pig aqueous humor (instillation of 0.003% ophthalmic solution, LC/MS/MS); format: in vivo, Hartley male guinea pig; conditions: 24 hr after instillation of 0.003% ophthalmic solution
# Method: A test article was dissolved in saline containing 0.5% polysorbate80 (Fluka) and 0.003% ophthalmic solution (pH 7.0-8.0) was prepared. The test article was administered to Hartley male guinea pig by instillation of 20 μL thereof to one eye by using a micropipette. After instillation, the lacrimal part was lightly fixed by gently pressing the lower eyelid for about 15 seconds. The opposite eye was treated in the same manner. To the vehicle group was administered the medium (0.5% polysorbate-containing saline) by a method similar to that for the test article. After 23 hr from the instillation, Mydrin P (registered trade mark) 0.5% ophthalmic solution (Santen Pharmaceutical Co., Ltd., general name: tropicamide/phenylephrine hydrochloride) was dropwisely added by one drop to the both eyes of a guinea pig to cause mydriasis. The guinea pig was anesthetized with Escain (registered trade mark) inhalation anesthetics (Pfizer Inc., general name: isoflurane), the cornea of the both eyes was tapped with a 30G injection needle, and the leaked aqueous humor (primary aqueous humor) was collected. One hour later (24 hr after instillation), the guinea pig was anesthetized again with isoflurane, and the secondary aqueous humor was collected in the same manner. The concentration of prostaglandins in the secondary aqueous humor obtained from each group (4 guinea pigs, 8 eyes) was measured by the LC/MS/MS system (Ultra high performance liquid chromatography: Nexera (registered trademark) manufactured by Shimadzu Corporation, mass spectrometer: […]), and the concentration ratio of each prostaglandin concentration relative to the total of all prostaglandin concentrations was calculated.
# human mPGES-1 = biological target: T1, human mPGES-1 (Homo sapiens, UniProt O14684); assay: Evaluation of human mPGES-1 enzyme inhibitory activity (PGE2 measured by HTRF, microsome fraction of CHO-S cells expressing human mPGES-1); format: biochemical; conditions: IC50 value; microsome fraction of CHO-S cells expressing human mPGES-1, PGE2 by HTRF
# T1 construct: made in house; host or cells: FreeStyle CHO-S cells (Chinese hamster ovary), transient transfection with pcDNA3.1(+)/human mPGES-1; microsome fraction used
# T1 sequence (O14684 1-152): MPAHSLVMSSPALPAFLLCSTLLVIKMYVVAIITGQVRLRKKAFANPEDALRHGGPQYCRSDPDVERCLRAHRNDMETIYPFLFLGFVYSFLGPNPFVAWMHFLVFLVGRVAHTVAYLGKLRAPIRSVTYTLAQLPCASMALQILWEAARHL
# Summary of the method: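 Enzyme source: microsomes from CHO-S cells transfected with human mPGES-1 and cultured 48 hr, diluted to 5 μg/mL protein in reduced GSH (12.5 mmol/L KPB solution). Test articles were in 0.1 mol/L potassium phosphate pH 7.4, final DMSO 2% (v/v). PGE2 formed was quantified by HTRF.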
IC50 (human mPGES-1),SMILES,6-keto-PGF1α (%) [1],PGD2 (%) [1],PGE2 (%) [1],PGF2α (%) [1],TXB2 (%) [1]
1.7 nM,"C[C@@H](Oc1ccc(-c2nc(O)nc(-c3cc(CNC(=O)C(C)(C)C(F)(F)F)ccc3Cl)n2)cc1)C1CC1 [Example 1-185, N-(4-chloro-3-{4-[4-((R)-1-cyclopropylethoxy)phenyl]-6-hydroxy-1,3,5-triazin-2-yl}benzyl)-3,3,3-trifluoro-2,2-dimethylpropionamide]",25.4%,12.1%,50%,11%,1.6%
3.7 nM,"Cc1cccc(COc2cccc(C(F)(F)F)c2-c2nc(O)nc(-c3ccc(C#Cc4ccccc4)cc3)n2)n1.Cl [Example 2-98, 4-[2-(6-methylpyridin-2-ylmethoxy)-6-trifluoromethylphenyl]-6-(4-phenylethynylphenyl)-1,3,5-triazin-2-ol hydrochloride]",27.3%,20.1%,37.8%,14.8%,0%
